In patent publication US20230279016A1, “Tetrahydropyrazolopyrimidines and Related Analogs for Inhibiting YAP/TAZ-TEAD” (THE KATHOLIEKE UNIVERSITEIT LEUVEN, priority 2021, published 2023):

Key:
Type in all cases: cell-based
[1] = test system: NCI-H2052 mesothelioma cell line; test: Mesothelioma cell line proliferation assay, NCI-H2052; details: Homo sapiens, NCI-H2052, 144 h, NCI-H2052, 6 days with compound, cell viability by ATPlite
Summary of the method: (§1)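 Cells were seeded at 1500 cells/well in RPMI 1640 with 10% FBS, left overnight, then exposed to DMSO-dissolved compounds in dose-response for 6 days at 37 °C, 5% CO2. Viability was measured by ATPlite luminescence, converted to percent inhibition, and used to derive EC50.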

[2] = test system: YAP/TAZ-TEAD transcription; test: Reporter gene assay for measuring the inhibition of YAP/TAZ-TEAD transcription (TEAD-responsive element luciferase reporter in Hek293T cells); details: Homo sapiens, HEK-293T, 24 h, Hek293T cells transiently transfected with TEAD-responsive element luciferase reporter, 24 hours incubation
Summary of the method: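 Hek293T cells transiently transfected with TEAD-responsive luciferase reporter, exposed to compound for 24 h at 37° C/5% CO2, then read by luminescence. Percent inhibition normalized to vehicle (0%) and positive control inhibitor (100%); EC50 reported as activity ranges.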

[3] = test system: NCI-H226 mesothelioma cell line; test: Mesothelioma cell line proliferation assay, NCI-H226; details: Homo sapiens, NCI-H226, 144 h, NCI-H226, 6 days with compound, cell viability by ATPlite
Summary of the method: as §1

Row | Structure (SMILES) | EC50 [1] [nM] | EC50 [2] [nM] | EC50 [3] [nM]
1 | C=CC(=O)NC1CN(c2ccc(OC(F)(F)F)cc2)c2ccnn2C1 (stereo not drawn) [Cpd. No. 063, N-(4-(4-(trifluoromethoxy)phenyl)-4,5,6,7-tetrahydropyrazolo[1,5-a]pyrimidin-6-yl)acrylamide] | < 1000 | < 1000 | < 1000
2 | C=CC(=O)NCC1Cc2c(cnn2C)N(c2ccc(C(F)(F)F)cc2)C1 (stereo not drawn) [Cpd. No. 068, N-((1-methyl-4-(4-(trifluoromethyl)phenyl)-4,5,6,7-tetrahydro-1H-pyrazolo[4,3-b]pyridin-6-yl)methyl)acrylamide] | < 1000 | < 1000 | < 1000
3 | C=CC(=O)NCC1Cc2nn(C)cc2N(c2ccc(C(F)(F)F)cc2)C1 (stereo not drawn) [Cpd. No. 069, N-((2-methyl-4-(4-(trifluoromethyl)phenyl)-4,5,6,7-tetrahydro-2H-pyrazolo[4,3-b]pyridin-6-yl)methyl)acrylamide] | < 1000 | < 1000 | < 1000
4 | C=CC(=O)NCC1Cc2c(cnn2C)N(c2ccc(OC(F)(F)F)cc2)C1 (stereo not drawn) [Cpd. No. 070, N-((1-methyl-4-(4-(trifluoromethoxy)phenyl)-4,5,6,7-tetrahydro-1H-pyrazolo[4,3-b]pyridin-6-yl)methyl)acrylamide] | < 1000 | < 1000 | < 1000
5 | C=CC(=O)NCC1Cc2nn(C)cc2N(c2ccc(OC(F)(F)F)cc2)C1 (stereo not drawn) [Cpd. No. 071, N-((2-methyl-4-(4-(trifluoromethoxy)phenyl)-4,5,6,7-tetrahydro-2H-pyrazolo[4,3-b]pyridin-6-yl)methyl)acrylamide] | < 1000 | < 1000 | < 1000
6 | C=CC(=O)NCC1Cc2c(cnn2Cc2cccc(C(N)=O)c2)N(c2ccc(C(F)(F)F)cc2)C1 (stereo not drawn) [Cpd. No. 080, 3-((6-(acrylamido-methyl)-4-(4-(trifluoromethyl)phenyl)-4,5,6,7-tetrahydro-1H-pyrazolo[4,3-b]pyridin-1-yl)methyl)benzamide] | < 1000 | < 1000 | < 1000
7 | C=CC(=O)NCC1Cc2nn(Cc3cccc(C(N)=O)c3)cc2N(c2ccc(C(F)(F)F)cc2)C1 (stereo not drawn) [Cpd. No. 081, 3-((6-(acrylamidomethyl)-4-(4-(trifluoromethyl)-phenyl)-4,5,6,7-tetrahydro-2H-pyrazolo[4,3-b]pyridin-2-yl)methyl)benzamide] | < 1000 | < 1000 | < 1000
8 | O=C1NCCC12CN(c1ccc(C(F)(F)F)cc1)c1ccnn1C2 (stereo not drawn) [Cpd. No. 087, 4-(4-(trifluoromethyl)phenyl)-4,5-dihydro-7H-spiro[pyrazolo[1,5-a]pyrimidine-6,3′-pyrrolidin]-2′-one] | > 10000 | < 1000 | > 10000
9 | C=CC(=O)N1CCC2(C1)CN(c1ccc(C(F)(F)F)cc1)c1ccnn1C2 (stereo not drawn) [Cpd. No. 088, 1-(4-(4-(trifluoromethyl)phenyl)-4,5-dihydro-7H-spiro[pyrazolo[1,5-a]pyrimidine-6,3′-pyrrolidin]-1′-yl)prop-2-en-1-one] | < 1000 | < 1000 | < 1000
